Test results from patent publication US20260001875A1, “AMINOPYRIMIDINYL DERIVATIVES FOR THE TREATMENT OF PARKINSON'S DISEASE” (UNIVERSITY OF DUNDEE, priority 2022, published 2026).

What was measured:
[1] = system: Rab10 pThr73; assay: Rab10 Thr73 dephosphorylation (immunoblot) in LRRK2^G2019S MEFs; type: cell-based; details: Mus musculus, read-out: pRab10 inhibited in LRRK2^G2019S MEFs
Protocol: (§1) The second-generation PROTACs were tested in parallel with the first generation PROTACs SD75, SD82, and SD100. The compounds were tested at 33 nM or […] concentrations for 4 hours or 24 hours, running two biological replicates per condition and achieving quantifications representative of both replicates. Analysis by quantitative immunoblotting was performed with readouts of the total LRRK2 (antibody recognizes epitope in C-terminus of protein), Rab10 pThr73 (physiological substrate) and LRRK2 pSer935 (biomarker phosphorylation site).
(§2) Primary MEFs were generated as described in a previous study (Wiggin et al., Mol. Cell Biol. 2002 April; 22(8):2871-81.). Briefly, the uterine horn was collected from adult female mice at day E12.5 and transferred to a 10 cm tissue culture dish containing cold PBS. Two forceps were used to tear the yolk sacs to isolate each embryo. Forceps were cleaned thoroughly with 70% ethanol between each embryo isolation. The embryos were culled, and a tissue piece was collected in a PCR tube for genotyping. The red tissue of the embryo, which grows to become the heart and liver, was removed. The remainder of the embryo was minced with a scalpel blade and incubated with 7.5 ml trypsin-EDTA solution for 10 minutes in a 37° C. tissue culture CO2 incubator. The dish was removed from the incubator and checked under a light microscope for single cells. 7.5 ml complete media was added to the trypsinised cells, and the cell suspension was transferred to a 15 ml Falcon tube, centrifuged at 1200 rpm for 5 minutes at room temperature. The trypsin was aspirated, the cell pellet was resuspended in 5 ml fresh complete media, and the cell suspension was plated in a 60 mm tissue culture dish and incubated in a 37° C., 5% CO2 tissue culture incubator. The MEFs at this stage were considered as passage 0 and were passaged and expanded for experimental use once the genotype was confirmed by allelic sequencing and immunoblotting. MEFs were cultured in Dulbecco's modified Eagle medium (DMEM) containing 10% (v/v) fetal bovine serum (FBS), 2 mM L-glutamine, 100 U/ml penicillin, and 100 μg/ml streptomycin supplemented with 1× non-essential amino acids and 1 mM sodium pyruvate.
Culturing and passaging of adherent cell lines were carried out using aseptic technique in CL1 or CL2 (for PBMC isolation) biological safety cabinets. All cells were incubated in a 37° C. incubator with 5% CO2. Cell lines were regularly tested for mycoplasma contamination. For western blot assay, the cells were seeded in 6-well plates. […] The cells were immediately placed on ice and were scraped and collected into 1.5 ml Eppendorf tubes. Cell lysates were incubated on ice for 10 minutes prior to centrifugation at 15,000 g at 4° C. for 15 minutes. The cell pellet was discarded, and supernatant was collected for analysis by quantitative immunoblotting. For long term storage, the supernatant was flash frozen and stored at −80° C. Protein concentrations of cell lysates were determined using the Bradford assay.
Cell lysates containing a quarter of a volume of 4× NuPAGE LDS sample buffer (NP0007) supplemented with 5% β-mercaptoethanol, were heated at 95° C. for 5 minutes. 15 to 20 μg of samples were loaded onto pre-cast 4-12% Bis-Tris midi 20W or 26W gels (Thermofisher Scientific®, Cat #WG1402BOX or WG1403BOX) and resolved at 130 V for 2 hours with NuPAGE MOPS SDS running buffer (Thermofisher Scientific® Cat #NP0001-02). Proteins were electrophoretically transferred onto a 0.45 μm nitrocellulose membrane (GE Healthcare, Amersham Protran® Supported 0.45 mm NC) at 90 V for 90 min on ice in transfer buffer (48 mM Tris base and 39 mM glycine supplemented with 20% methanol). The transferred membrane was blocked with 5% (w/v) skim milk powder dissolved in tris-buffered saline with tween (TBS-T) (50 mM Tris base, 150 mM sodium chloride (NaCl), 0.1% (v/v) Tween-20) at room temperature for 1 hour.

[2] = system: Rab10 pThr73; assay: Rab10 Thr73 dephosphorylation (immunoblot) in WT MEFs; type: cell-based, mouse; details: Mus musculus, read-out: pRab10 inhibited in WT MEFs
Protocol: as §1, with “Western blot degradation assays for the LRRK2 protacs were performed with WT and PD-associated LRRK2 [G2019S] mouse embryonic fibroblasts (MEFs). The second-generation” for “The second-generation”
as §2
Culturing and passaging of adherent cell lines were carried out using aseptic technique in CL1 or CL2 (for PBMC isolation) biological safety cabinets. All cells were incubated in a 37° C. incubator with 5% CO2. Cell lines were regularly tested for mycoplasma contamination. For western blot assay, the cells were seeded in 6-well plates. After treating with testing compounds at indicated concentrations and time period, the media was removed and the cells were washed with PBS and lysed in 100 μl ice-cold complete lysis buffer containing 50 mM Tris-HCl pH 7.4, 1 mM EGTA, 10 mM 2-glycerophosphate, 50 mM sodium fluoride, 5 mM sodium pyrophosphate, 270 mM sucrose, supplemented with 1 μg/ml microcystin-LR, 1 mM sodium orthovanadate, complete EDTA-free protease inhibitor cocktail (Roche) and 1% (v/v) Triton X-100. The cells were immediately placed on ice and were scraped and collected into 1.5 ml Eppendorf tubes. Cell lysates were incubated on ice for 10 minutes prior to centrifugation at 15,000 g at 4° C. for 15 minutes. The cell pellet was discarded, and supernatant was collected for analysis by quantitative immunoblotting. For long term storage, the supernatant was flash frozen and stored at −80° C. Protein concentrations of cell lysates were determined using the Bradford assay.
Cell lysates containing a quarter of a volume of 4× NuPAGE LDS sample buffer (NP0007) supplemented with 5% β-mercaptoethanol, were heated at 95° C. for 5 minutes. […]

[3] = system: Rab10 pThr73; assay: Rab10 Thr73 dephosphorylation (immunoblot) in LRRK2^G2019S MEFs; type: cell-based, mouse; details: Mus musculus, read-out: pRab10 inhibited in LRRK2^G2019S MEFs

## CNc1nc(Nc2ccc(OC[C@H]3CC[C@H](CSC(C)(C)C(NC(=O)C4(F)CC4)C(=O)N4C[C@H](O)C[C@H]4C(=O)NCc4ccc(-c5scnc5C)cc4)CC3)cc2OC)ncc1Cl (stereo partly drawn) [XL01168, (2S,4R)-1-((S)-3-((((1R,4S)-4-((4-((5-chloro-4-(methylamino)pyrimidin-2-yl)amino)-3-methoxyphenoxy)methyl)cyclohexyl)methyl)thio)-2-(1-fluorocyclopropane-1-carboxamido)-3-methylbutanoyl)-4-hydroxy-N-(4-(4-methylthiazol-5-yl)benzyl)pyrrolidine-2-carboxamide]
[1]; 33 nM/4 h treatment
  inhibition at 0.033 µM: 0 to 70%
[1]; 33 nM/24 h treatment
  inhibition at 0.033 µM: 0 to 90%
[2]; 33 nM/4 h treatment
  inhibition at 0.033 µM: 0 to 40%
[2]; 33 nM/24 h treatment
  inhibition at 0.033 µM: 0 to 60%
[2]; 1 μM/4 h treatment
  inhibition at 1 µM: 10 to 95%
[2]; 1 μM/24 h treatment
  inhibition at 1 µM: 30 to 100%
[3]; 1 μM/4 h treatment
  inhibition at 1 µM: 20 to 100%
[3]; 1 μM/24 h treatment
  inhibition at 1 µM: 10 to 100%

## CNc1nc(Nc2ccc(C(=O)N3CCN(CCCOc4cccc(C(=O)c5csc(C6CCCN6C(=O)[C@@H](NC(=O)[C@H](C)NC)C6CCCCC6)n5)c4)CC3)cc2OC)ncc1Cl (stereo partly drawn) [SD114, (S)—N—((S)-2-((S)-2-(4-(3-(3-(4-(4-((5-chloro-4-(methylamino)pyrimidin-2-yl)amino)-3-methoxybenzoyl)piperazin-1-yl)propoxy)benzoyl)thiazol-2-yl)pyrrolidin-1-yl)-1-cyclohexyl-2-oxoethyl)-2-(methylamino)propenamide]
[1]; 33 nM/4 h treatment
  inhibition at 0.033 µM: 0 to 60%
[1]; 33 nM/24 h treatment
  inhibition at 0.033 µM: 0 to 70%
[2]; 33 nM/4 h treatment
  inhibition at 0.033 µM: 0 to 25%
[2]; 33 nM/24 h treatment
  inhibition at 0.033 µM: 10 to 40%
[2]; 1 μM/4 h treatment
  inhibition at 1 µM: 18 to 90%
[2]; 1 μM/24 h treatment
  inhibition at 1 µM: 30 to 90%
[3]; 1 μM/4 h treatment
  inhibition at 1 µM: 30 to 95%
[3]; 1 μM/24 h treatment
  inhibition at 1 µM: 30 to 100%

## CNc1nc(Nc2ccc(C(=O)N3CCN(CCOCCSC(C)(C)[C@H](NC(=O)C4(F)CC4)C(=O)N4C[C@H](O)C[C@H]4C(=O)NCc4ccc(-c5scnc5C)cc4)CC3)cc2OC)ncc1Cl [XL01131, (2S,4R)-1-((R)-3-((2-(2-(4-(4-((5-chloro-4-(methylamino)pyrimidin-2-yl)amino)-3-methoxybenzoyl)piperazin-1-yl)ethoxy)ethyl)thio)-2-(1-fluorocyclopropane-1-carboxamido)-3-methylbutanoyl)-4-hydroxy-N-(4-(4-methylthiazol-5-yl)benzyl)pyrrolidine-2-carboxamide]
[1]; 33 nM/4 h treatment
  inhibition at 0.033 µM: 0 to 70%
[1]; 33 nM/24 h treatment
  inhibition at 0.033 µM: 0 to 90%
[2]; 33 nM/4 h treatment
  inhibition at 0.033 µM: 0 to 40%
[2]; 33 nM/24 h treatment
  inhibition at 0.033 µM: 0 to 60%
[2]; 1 μM/4 h treatment
  inhibition at 1 µM: 10 to 95%
[2]; 1 μM/24 h treatment
  inhibition at 1 µM: 30 to 100%
[3]; 1 μM/4 h treatment
  inhibition at 1 µM: 20 to 100%
[3]; 1 μM/24 h treatment
  inhibition at 1 µM: 10 to 100%

## CNc1nc(Nc2ccc(OCCOCCOCCOCCSC(C)(C)[C@@H](NC(=O)C3(F)CC3)C(=O)N3C[C@H](O)C[C@H]3C(=O)NCc3ccc(-c4scnc4C)cc3)cc2OC)ncc1Cl [XL01145, (2S,4R)-1-((S)-1-(4-((5-chloro-4-(methylamino)pyrimidin-2-yl)amino)-3-methoxyphenoxy)-14-(1-fluorocyclopropane-1-carboxamido)-13,13-dimethyl-3,6,9-trioxa-12-thiapentadecan-15-oyl)-4-hydroxy-N-(4-(4-methylthiazol-5-yl)benzyl)pyrrolidine-2-carboxamide]
[1]; 33 nM/4 h treatment
  inhibition at 0.033 µM: 0 to 70%
[1]; 33 nM/24 h treatment
  inhibition at 0.033 µM: 0 to 90%
[2]; 33 nM/4 h treatment
  inhibition at 0.033 µM: 0 to 40%
[2]; 33 nM/24 h treatment
  inhibition at 0.033 µM: 0 to 60%
[2]; 1 μM/4 h treatment
  inhibition at 1 µM: 10 to 95%
[2]; 1 μM/24 h treatment
  inhibition at 1 µM: 30 to 100%
[3]; 1 μM/4 h treatment
  inhibition at 1 µM: 20 to 100%
[3]; 1 μM/24 h treatment
  inhibition at 1 µM: 10 to 100%

## CNc1nc(Nc2ccc(C(=O)N3CCN(CCOCCOCCOCCOCCOc4cc(-c5scnc5C)ccc4CNC(=O)[C@@H]4C[C@@H](O)CN4C(=O)[C@@H](NC(=O)C4(F)CC4)C(C)(C)C)CC3)cc2OC)ncc1Cl [SD79, (2S,4R)—N-(2-((14-(4-(4-((5-chloro-4-(methylamino)pyrimidin-2-yl)amino)-3-methoxybenzoyl)piperazin-1-yl)-3,6,9,12-tetraoxatetradecyl)oxy)-4-(4-methylthiazol-5-yl)benzyl)-1-((S)-2-(1-fluorocyclopropane-1-carboxamido)-3,3-dimethylbutanoyl)-4-hydroxypyrrolidine-2-carboxamide]
[1]; 33 nM/4 h treatment
  inhibition at 0.033 µM: 0 to 60%
[1]; 33 nM/24 h treatment
  inhibition at 0.033 µM: 0 to 70%
[2]; 33 nM/4 h treatment
  inhibition at 0.033 µM: 0 to 25%
[2]; 33 nM/24 h treatment
  inhibition at 0.033 µM: 10 to 40%
[2]; 1 μM/4 h treatment
  inhibition at 1 µM: 18 to 90%
[2]; 1 μM/24 h treatment
  inhibition at 1 µM: 30 to 90%
[3]; 1 μM/4 h treatment
  inhibition at 1 µM: 30 to 95%
[3]; 1 μM/24 h treatment
  inhibition at 1 µM: 30 to 100%

## CNc1nc(Nc2ccc(C(=O)N3CCN(CC4CC[C@H](CSC(C)(C)C(NC(=O)C5(F)CC5)C(=O)N5C[C@H](O)C[C@H]5C(=O)NCc5ccc(-c6scnc6C)cc5)C4)CC3)cc2OC)ncc1Cl (stereo in doubt) [XL02093, (2S,4R)-1-((S)-3-((((1S,3S)-3-((4-(4-((5-chloro-4-(methylamino)pyrimidin-2-yl)amino)-3-methoxybenzoyl)piperazin-1-yl)methyl)cyclopentyl)methyl)thio)-2-(1-fluorocyclopropane-1-carboxamido)-3-methylbutanoyl)-4-hydroxy-N-(4-(4-methylthiazol-5-yl)benzyl)pyrrolidine-2-carboxamide]
[1]; 33 nM/4 h treatment
  inhibition at 0.033 µM: 20 to 50%
[2]; 33 nM/4 h treatment
  inhibition at 0.033 µM: 20 to 40%
[2]; 1 μM/4 h treatment
  inhibition at 1 µM: 75 to 90%
[3]; 1 μM/4 h treatment
  inhibition at 1 µM: 80 to 100%

## CNc1nc(Nc2ccc(C(=O)N3C[C@@H](C)N(C[C@H]4CC[C@H](CSC(C)(C)C(NC(=O)C5(F)CC5)C(=O)N5C[C@H](O)C[C@H]5C(=O)NCc5ccc(-c6scnc6C)cc5)CC4)[C@@H](C)C3)cc2OC)ncc1Cl (stereo partly shown) [XL02031]
[1]; 33 nM/4 h treatment
  inhibition at 0.033 µM: 0 to 90%
[1]; 33 nM/24 h treatment
  inhibition at 0.033 µM: 30 to 90%
[2]; 33 nM/4 h treatment
  inhibition at 0.033 µM: 0 to 70%
[2]; 33 nM/24 h treatment
  inhibition at 0.033 µM: 0 to 80%
[2]; 1 μM/4 h treatment
  inhibition at 1 µM: 80 to 100%
[2]; 1 μM/24 h treatment
  inhibition at 1 µM: 80 to 100%
[3]; 1 μM/4 h treatment
  inhibition at 1 µM: 10 to 100%
[3]; 1 μM/24 h treatment
  inhibition at 1 µM: 80 to 100%
